This note sets out measurements from US20240116998A1, “GLUCAGON-LIKE PEPTIDE-1 RECEPTOR ANTAGONISTS” (INDIANA UNIVERSITY RESEARCH AND TECHNOLOGY CORPORATION, priority 2021, published 2024).

≈ marks a conversion by molar mass, not a printed value. Non-standard residues stand in square brackets, D forms with d. Residues, ends and D or L forms follow the SMILES beside them. *: point of attachment. Palmitoyl = CCCCCCCCCCCCCCCC(=O)*; Aib = CC(C)(N)C(=O)O

A short description of the series: Solubility of peptides in buffer. The series is classed as physicochemical.

For orientation: solubility means how much of the substance goes into solution per volume. Low values mean a poorly soluble substance, high ones a readily soluble substance. For the molecule `CCCCCCCCCCCCCCCC(=O)NCCCC[C@H](NC(=O)[C@H](CO)NC(=O)[C@@H]1CCCN1C(=O)[C@@H]1CCCN1C(=O)[C@@H]1CCCN1C(=O)[C@H](C)NC(=O)CNC(=O)[C@H](CO)NC(=O)[C@H](CO)NC(=O)[C@@H]1CCCN1C(=O)CNC(=O)CNC(=O)[C@H](CCCCN)NC(=O)[C@@H](NC(=O)[C@H](CC(C)C)NC(=O)[C@H](Cc1c[nH]c2ccccc12)NC(=O)C(C)(C)NC(=O)[C@@H](NC(=O)[C@H](Cc1ccccc1)NC(=O)[C@H](CCC(=O)O)NC(=O)[C@H](CCCNC(=N)N)NC(=O)[C@@H](NC(=O)[C@H](C)NC(=O)[C@H](CCC(N)=O)NC(=O)[C@H](CCC(=O)O)NC(=O)[C@H](CCC(=O)O)NC(=O)[C@H](CC(C)C)NC(=O)[C@H](Cc1ccc(O)cc1)NC(=O)[C@H](CO)NC(=O)[C@H](CO)NC(=O)[C@@H](NC(=O)[C@@H](N)CC(=O)O)C(C)C)C(C)C)[C@@H](C)CC)C(C)C)C(N)=O` [SEQ ID NO: 83] (H-DVSSYLEEQAVREFI[Aib]WLVKGGPSSGAPPPSK(Palmitoyl)-NH2; N-terminus assumed), where the note is “pH 7.4”, the concentration in solution (solubility) was 300 µg/mL (≈ 82.1 µM).

In the case of `CCCCCCCCCCCCCCCC(=O)NCCCC[C@H](NC(=O)[C@H](CO)NC(=O)[C@@H]1CCCN1C(=O)[C@@H]1CCCN1C(=O)[C@@H]1CCCN1C(=O)[C@H](C)NC(=O)CNC(=O)[C@H](CO)NC(=O)[C@H](CO)NC(=O)[C@@H]1CCCN1C(=O)CNC(=O)CNC(=O)[C@H](CCCNC(=N)N)NC(=O)[C@@H](NC(=O)[C@H](CC(C)C)NC(=O)[C@H](Cc1c[nH]c2ccccc12)NC(=O)[C@H](CCC(=O)O)NC(=O)[C@@H](NC(=O)[C@H](Cc1ccccc1)NC(=O)[C@H](CCC(=O)O)NC(=O)[C@H](CCCNC(=N)N)NC(=O)[C@@H](NC(=O)[C@H](C)NC(=O)[C@H](CCC(=O)O)NC(=O)[C@H](CCC(=O)O)NC(=O)[C@H](CCC(=O)O)NC(=O)[C@H](CC(C)C)NC(=O)[C@H](Cc1ccc(O)cc1)NC(=O)[C@H](CCCNC(=N)N)NC(=O)[C@H](CO)NC(=O)[C@@H](NC(=O)[C@@H](N)CC(=O)O)C(C)C)C(C)C)[C@@H](C)CC)C(C)C)C(N)=O` [SEQ ID NO: 75] (H-DVSRYLEEEAVREFIEWLVRGGPSSGAPPPSK(Palmitoyl)-NH2), where the note is “Table 3, 80 mM AmBicarb pH 7.7, unit not given”, the “Solubility 80 mM AmBicarb pH 7.7” value was 18.5.
